Consider two molecules from PMC5676038, “MCR-1 Inhibition with Peptide-Conjugated Phosphorodiamidate Morpholino Oligomers Restores Sensitivity to Polymyxin in Escherichia coli” (mBio, 2017).

Positions of bridges follow the written chain, without caps; N, C: chain ends. Non-standard residues stand in square brackets, D forms with d. Residues, ends and D or L forms follow the SMILES beside them. *: point of attachment. X1 = CC[C@H](C)CCCCC(=O)*; Dab = NCC[C@H](N)C(=O)O

Assay [1] has as its system E. coli MRSN 388634. Put plainly: Mouse septicemia model, acute. It counts as in vivo, BALB/c mice. How it is done: FIG 3 PPMOs rescue colistin activity in a mouse model of acute septicemia. Female BALB/c mice (7 to 8 weeks old) were infected via intraperitoneal injection with 8e4 CFU of MRSN 388634. At 2 and 6 h postinfection, 0.25 mg/kg colistin sulfate, 100 μg PPMO (~5 mg/kg), or the combination was administered via the i.p. route. Mice were euthanized at 24 h, and organ burden was determined. Numbers of CFU per gram of tissue of the liver (A) and spleen (B) are shown. (C) Morbidity was assessed immediately prior to euthanasia and scored as a maxima of 6 (moribund) and a nadir of 0. Mice that succumbed prior to euthanasia are depicted with the maxima score of 6. The data represent the means and standard errors of the means (SEM) of results from two replicate experiments (n = 4) (n = 8 per group total). n.s., not significant; *, P < 0.05; **, P < 0.01; ***, P < 0.001; ****, P < 0.0001 by Student’s t test, with the Mann-Whitney test used for morbidity.
Animal experiments were approved by the […] at UT Southwestern Medical Center (protocol number 2016-101626). The mouse model of septicemia with PPMO rescue of antibiotic activity was described previously ([10]).
(§1) Briefly, 7- to 8-week-old female BALB/c mice (Jackson Laboratory, Sacramento, CA, USA) were infected intraperitoneally (i.p.) with 8 × 10^4 CFU of E. coli (MRSN 388634) in DPBS with 5% mucin (M1778; Sigma-Aldrich). At 2 and 6 h postinfection, 0.25 mg/kg colistin sulfate, 100 µg PPMO, or the combination was administered i.p. in 100 µl DPBS. Morbidity was assessed at 24 h, immediately prior to euthanasia. Mice were scored from 0 to 6 as follows: 0 for the absence or 1 for the presence of a ruffled coat; 0 for a normal posture, 1 for a hunched posture, and 2 for a prostrate posture; and 0 for nondisturbed movement, 1 for slow movement, 2 for movement after prodding, and 3 for no movement. Mice that succumbed to infection prior to euthanasia were scored as the maxima, 6 (moribund). Spleen and liver were harvested and homogenized in 1 ml DPBS (Omni TH; Omni International, Kennesaw, GA), serially diluted, and plated on blood agar.

The test system of assay [2] is E. coli MRSN 388634. The experiment in a line: Mouse septicemia model, survival. It counts as in vivo, BALB/c mice. The method, then: FIG 4 PPMOs combined with colistin protect mice from a lethal dose of mcr-1-positive E. coli. Female BALB/c mice (7 to 8 weeks old) were infected via intraperitoneal injection with 1e6 CFU of MRSN 388634. At 2 and 6 h postinfection 0.5 mg/kg colistin sulfate, 100 μg PPMO (~5 mg/kg), or the combination was administered via the i.p. route. Mice were monitored for morbidity, with an assessment scored at a maxima of 6 (moribund; dotted line [b]) and a nadir of 0. The data represent the means and SEM from two replicate experiments (n = 4) (n = 8 per group total). (A to C) Survival curve (A), morbidity scoring (B), and weight loss measurement (C) over the course of 5 days. ****, P < 0.0001 by the Mantel-Cox log-rank test.
as §1
Mice were infected and treated as described above except that the inoculum was increased to 1 × 10^6 CFU and the colistin dose was increased to 0.5 mg/kg. Mice were weighed, and morbidity was assessed every 6 h for the first 36 h and then every 12 h out to 120 h (5 days). Mice that reached the moribund state were euthanized.

`CC[C@H](C)CCCCC(=O)N[C@@H](CCN)C(=O)N[C@H](C(=O)N[C@@H](CCN)C(=O)N[C@H]1CCNC(=O)[C@H]([C@@H](C)O)NC(=O)[C@H](CCN)NC(=O)[C@H](CCN)NC(=O)[C@H](CC(C)C)NC(=O)[C@@H](CC(C)C)NC(=O)[C@H](CCN)NC1=O)[C@@H](C)O` [Colistin, colistin, reference compound] (X1-[Dab]T[Dab][Dab][Dab][dL]L[Dab][Dab]T; lactam 4-C (inferred); N-terminus assumed): the “burden in the liver and morbidity at 24 h, colistin alone” value in the assay with E. coli MRSN 388634 [1] (BALB/c, 8 × 10^4 CFU i.p., colistin sulfate 0.25 mg/kg i.p. at 2 and 6 h, n = 8) is given as “significant reduction”.

Take “TCAAAGAGTAC [Mcr1-0545, (RXR)4XB 3′-end-conjugated PPMO targeted to mcr-1 mRNA, positions −8 to +3; theone tested in mice]”: the “effect on burden or morbidity at 24 h, PPMO alone” value with E. coli MRSN 388634 [1] (BALB/c, 8 × 10^4 CFU i.p., PPMO 100 μg (~5 mg/kg) i.p. at 2 and 6 h postinfection, n = 8) is recorded as “Neither the MCR-1 nor the Ctrl PPMO alone had an effect”. Also, in the assay with E. coli MRSN 388634 [1] (PPMO ~5 mg/kg + colistin sulfate 0.25 mg/kg i.p. at 2 and 6 h, 24 h), the “decrease in the number of CFU, combination with colistin” value was ~ 1 log. In addition, in the assay with E. coli MRSN 388634 [1] (PPMO ~5 mg/kg + colistin sulfate 0.25 mg/kg i.p. at 2 and 6 h, 24 h, n = 8), the “liver burden and morbidity, combination with colistin, compared to Ctrl PPMO and colistin” value is on record as “significantly less”. Further, in the assay with E. coli MRSN 388634 [1] (PPMO ~5 mg/kg + colistin sulfate 0.25 mg/kg i.p. at 2 and 6 h, n = 8), the “numbers of CFU in liver and spleen at 24 h, combination with colistin, compared to DPBS control” value is given as “significant reduction”. Further, the “survival to the 5-day endpoint, combination with colistin” value in the assay with E. coli MRSN 388634 [2] (BALB/c, 1 × 10^6 CFU i.p., PPMO 100 μg (~5 mg/kg) + colistin sulfate 0.5 mg/kg i.p. at 2 and 6 h, n = 6/8) is reported as 75%. Further, the “body weight course, combination with colistin” value with E. coli MRSN 388634 [2] (PPMO ~5 mg/kg + colistin sulfate 0.5 mg/kg, over 5 days) was “continued to lose weight over the course of the experiment”. In the assay with E. coli MRSN 388634 [2] (PPMO ~5 mg/kg + colistin sulfate 0.5 mg/kg, score 0 to 6), the “morbidity course, combination with colistin” value is reported as “increased initially, but the mice began to recover by 24 h”.
